# In patent US20060083754A1, “Pharmaceutical combinations comprising corticoids and immunosuppressants for treating corticoid- and/or calcineurin inhibitors-resistant diseases” (priority 2003, published 2006):
# Experiments:
# [1] = tested on: human peripheral blood mononuclear cells (PBMC); assay: T-cell proliferation assay (BrdU ELISA), PBMC stimulated with SEB; format: cell-based; settings: SEB (0.1 μg/ml); for inhibition at 0.03 µM: Homo sapiens, PBMC
# [2] = tested on: human peripheral blood mononuclear cells (PBMC); assay: T-cell proliferation assay (BrdU ELISA), PBMC stimulated with anti-CD3 mAb + anti-CD28 mAb; format: cell-based; settings: anti-CD3 mAb (0.1 μg/ml)+anti-CD28 mAb (1 μg/ml); for inhibition at 0.03 µM: Homo sapiens, PBMC
# [3] = Example 4, 200000 cells/well, HC 10 μM, ASM 30 nM, BETA 300 nM
# [4] = Example 5, 100000 cells/well, HC 10 μM, ASM 30 nM, BETA 300 nM
# [5] = Example 9, 200000 cells/well, DEX 300 nM, ASM 30 nM, BETA 300 nM
# [6] = Example 10, 100000 cells/well, DEX 300 nM, ASM 30 nM, BETA 300 nM
# [7] = Example 12, 100000 cells/well, DEX 300 nM, ASM 30 nM
# [8] = Example 1, 200000 cells/well, HC 10 μM, ASM 30 nM, BETA 300 nM
# [9] = Example 2, 100000 cells/well, HC 10 μM, ASM 30 nM, BETA 300 nM
# [10] = Example 3, 50000 cells/well, HC 10 μM, ASM 30 nM, BETA 300 nM
# [11] = Example 6, 200000 cells/well, DEX 300 nM, ASM 30 nM, BETA 300 nM
# [12] = Example 7, 100000 cells/well, DEX 300 nM, ASM 30 nM, BETA 300 nM
# [13] = Example 8, 50000 cells/well, DEX 300 nM, ASM 30 nM, BETA 300 nM
# [14] = Example 11, 100000 cells/well, DEX 300 nM, ASM 30 nM
compound,measurement,setting,value
"CC[C@@H]1/C=C(\C)C[C@H](C)C[C@H](OC)[C@H]2O[C@@](O)(C(=O)C(=O)N3CCCC[C@H]3C(=O)O[C@H](/C(C)=C/[C@@H]3CC[C@H](Cl)[C@H](OC)C3)[C@H](C)[C@@H](O)CC1=O)[C@H](C)C[C@@H]2OC [ASM, 33-epi-33-chloro-FR 520]",Normalized OD (% STIM-C),[1]; [3],95.8 % STIM-C
same,OD,[1]; [3],1.015
same,Normalized OD (% STIM-C),[1]; [4],78.1 % STIM-C
same,OD,[1]; [4],0.665
same,Normalized OD (% STIM-C),[1]; [5],83.1 % STIM-C
same,OD,[1]; [5],0.752
same,Normalized OD (% STIM-C),[1]; [6],67.3 % STIM-C
same,OD,[1]; [6],0.660
same,Normalized OD (% STIM-C),[1]; [7],77.5 % STIM-C
same,OD,[1]; [7],1.013
same,inhibition at 0.03 µM,[1]; [4],< 24%
same,inhibition at 0.03 µM,[1]; [5],< 19%
same,inhibition at 0.03 µM,[1]; [6],< 34%
same,inhibition at 0.03 µM,[1]; [7],< 24%
same,Normalized OD (% STIM-C),[2]; [8],93.9 % STIM-C
same,OD,[2]; [8],0.721
same,Normalized OD (% STIM-C),[2]; [9],85.1 % STIM-C
same,OD,[2]; [9],0.776
same,Normalized OD (% STIM-C),[2]; [10],113.2 % STIM-C
same,OD,[2]; [10],0.994
same,Normalized OD (% STIM-C),[2]; [11],98.0 % STIM-C
same,OD,[2]; [11],0.772
same,Normalized OD (% STIM-C),[2]; [12],87.4 % STIM-C
same,OD,[2]; [12],0.734
same,Normalized OD (% STIM-C),[2]; [13],86.2 % STIM-C
same,OD,[2]; [13],0.908
same,Normalized OD (% STIM-C),[2]; [14],79.1 % STIM-C
same,OD,[2]; [14],0.918
same,inhibition at 0.03 µM,[2]; [8],6.7%
same,inhibition at 0.03 µM,[2]; [9],< 17%
same,inhibition at 0.03 µM,[2]; [10],-14.3%
same,inhibition at 0.03 µM,[2]; [12],< 25%
same,inhibition at 0.03 µM,[2]; [13],< 26%
same,inhibition at 0.03 µM,[2]; [14],< 25%
"C[C@@H]1C[C@H]2[C@@H]3CCC4=CC(=O)C=C[C@]4(C)[C@@]3(F)[C@@H](O)C[C@]2(C)[C@@]1(O)C(=O)CO [DEX, dexamethasone]",Normalized OD (% STIM-C),[1]; [5],101.5 % STIM-C
same,Normalized OD (% STIM-C),[1]; [6],86.4 % STIM-C
same,Normalized OD (% STIM-C),[1]; [7],105.7 % STIM-C
same,Normalized OD (% STIM-C),"[1]; Example 26, 200000 cells/well, DEX 300 nM, CsA 300 nM, BETA 300 nM, DEX (300 nM)+CsA (30 nM), BETA (300 nM)+CsA (300 nM)",101.5 % STIM-C
same,Normalized OD (% STIM-C),[2]; [11],87.2 % STIM-C
same,Normalized OD (% STIM-C),[2]; [12],76.5 % STIM-C
same,Normalized OD (% STIM-C),[2]; [13],82.2 % STIM-C
same,Normalized OD (% STIM-C),[2]; [14],76.3 % STIM-C
same,Normalized OD (% STIM-C),"[2]; Example 15, 200000 cells/well, DEX 300 nM, FK 30 nM, BETA 300 nM",87.2 % STIM-C
same,Normalized OD (% STIM-C),"[2]; Example 16, 100000 cells/well, DEX 300 nM, FK 30 nM, BETA 300 nM",76.5 % STIM-C
same,Normalized OD (% STIM-C),"[2]; Example 17, 50000 cells/well, DEX 300 nM, FK 30 nM, BETA 300 nM",82.2 % STIM-C
same,Normalized OD (% STIM-C),"[2]; Example 18, 100000 cells/well, DEX 300 nM, FK 30 nM",76.3 % STIM-C
same,Normalized OD (% STIM-C),"[2]; Example 23, 200000 cells/well, DEX 300 nM, CsA 300 nM, BETA 300 nM, DEX (300 nM)+CsA (30 nM), BETA (300 nM)+CsA (300 nM)",87.2 % STIM-C
same,Normalized OD (% STIM-C),"[2]; Example 24, 100000 cells/well, DEX 300 nM, CsA 300 nM, BETA 300 nM, DEX (300 nM)+CsA (30 nM), BETA (300 nM)+CsA (300 nM)",76.5 % STIM-C
same,Normalized OD (% STIM-C),"[2]; Example 25, 50000 cells/well, DEX 300 nM, CsA 300 nM, BETA 300 nM, DEX (300 nM)+CsA (30 nM), BETA (300 nM)+CsA (300 nM)",82.2 % STIM-C
same,Normalized OD (% STIM-C),"[2]; Example 27, 100000 cells/well, DEX 300 nM, CsA 300 nM",76.3 % STIM-C
